From patent publication US12545668B2, “Cyclic amine derivative as agent for promoting advillin function, and novel cyclic amine derivative and pharmaceutical use thereof” (Toray Industries, Inc., priority 2018, dated 2026)

Assays:
[1] = Specific binding of 3H-labeled compound to membrane fraction prepared from rat sciatic nerve; details: 3H-labeled compound of Example 7, 37° C., 1 hour; relative to dorsal root ganglion
Method: (§1) A binding property of a ^3H-labeled cyclic amine derivative (I) to each of membrane fractions prepared from various tissues of a rat was evaluated, and thus, a tissue containing a molecular target of the cyclic amine derivative (I) was clarified.
(§2) As the cyclic amine derivative (I), the compound of Example 7 was used.
(§3) Male SD rats (manufactured by Charles River Laboratories Japan, Inc.) of 7 weeks old were used. Rats were anesthetized with isoflurane, and euthanized by exsanguination from the abdominal aorta using a syringe having an inner wall treated with a heparin sodium injection (manufactured by AY Pharmaceuticals Co., Ltd.). […]
(§4) A homogenate sample of each tissue thus collected was prepared, using a homogenizer, by adding a homogenize buffer (sucrose (1 M), Tris-HCl (0.5 M), and 1× protease inhibitor cocktail (manufactured by Sigma Aldrich), pH 7.6) to the collected tissue. […] The resultant supernatant was ultracentrifuged at 100,000×g at 4° C. for 60 minutes, and the thus obtained precipitate was suspended in Krebs-Ringer bicarbonate buffer (manufactured by Sigma Aldrich) to quantitatively determine the amount of protein using a BCA protein assay kit (manufactured by Thermo Fisher Scientific K.K.). […]

[2] = Specific binding of 3H-labeled compound to membrane fractions prepared from the other rat tissues; details: 3H-labeled compound of Example 7, 37° C., 1 hour; relative to dorsal root ganglion
Method: as §1, §2, §3, §4

[3] = Specific binding of 3H-labeled compound to membrane fraction prepared from rat dorsal root ganglion; details: 3H-labeled compound of Example 7, 37° C., 1 hour; unlabeled compound for non-specific binding; FIG. 2
Method: as §1, §2, §3, §4

CN(C)C1CCN(C(=O)C[C@H](O)c2nccn2C)CC1 [Example 7, (S)-1-(4-(dimethylamino)piperidin-1-yl)-3-hydroxy-3-(1-methyl-1H-imidazol-2-yl)propan-1-one]
specific binding to the membrane fraction prepared from the sciatic nerve, as % of the specific binding to the dorsal root ganglion membrane fraction [1]: 42% | specific bindings to the membrane fractions prepared from the other tissues including the brain, as % of the specific binding to the dorsal root ganglion membrane fraction [2]: less than 1% | specific binding to the membrane fraction prepared from the dorsal root ganglion [3]: significant
